Experiment: Isokinetic squat peak force on mechanized squat device
Format: in vivo, human
Conditions: for PFCON ES (d) / PFECC ES (d): Cohen's d baseline vs week 8; for PFCON Δ (%) / PFECC Δ (%): change baseline to week 8 relative to baseline; for PFCON (N) Week 4 / PFCON (N) Week 8: concentric peak force; for PFCON (N) Week 4 / PFCON (N) Week 8 / PFECC (N) Week 4 / PFECC (N) Week 8: mean ± SE; for PFECC (N) Week 4 / PFECC (N) Week 8: eccentric peak force; for PFCON (N) Δ / PFECC (N) Δ: week 8 minus baseline
Source text: Assessments of muscular performance took place between 12:00 and 18:00 in the non-fasted state, and participants were instructed to follow their preferred food and fluid intake patterns prior to testing. The assessment began with a 5-minute warm up period using a self-selected pace on a stationary bicycle. This warm up period was followed by assessment of countermovement vertical jumps (CMVJ) performance, testing on a mechanized squat device, and muscular strength and endurance assessment on the bench press and hip sled exercises. At the 4-week assessment, the CMVJ and hip sled assessments were not performed.
Isometric and isokinetic squats were performed using a mechanized squat device (Exerbotics eSq, Tulsa, Okla., USA) (31, 32). At the first assessment, each participant's preferred foot positioning was determined using a custom grid overlaid on the foot platform of the squat device. This foot positioning was recorded and utilized for all visits. No weight belts, knee wraps, or other aids were utilized during testing. Prior to testing, the participant's range of motion for isokinetic testing was determined. The range of motion was set to 90° between the thigh and lower leg at the bottom of the repetition and approximately 170° at the top of the repetition, as determined by a goniometer. The isometric testing included maximal effort pushes at 120° and 150° knee angles. Each participant was instructed to push against the device as hard and fast as possible while attempting to complete a squat movement. Two isometric pushes were performed at each knee angle, and each effort lasted approximately 2 to 3 seconds. After the isometric testing, a 3-repetition maximum isokinetic force production test was completed. Prior to testing, participants observed the movement of the machine and received verbal instruction regarding proper performance of the assessment. Each of the repetitions during the maximal isokinetic force production test consisted of a 4-second eccentric phase, followed by an approximately half-second pause at the 90° knee position and a 4-second concentric phase. During testing, the force signal was sampled from the load cell at 1 kHz (MP100; Biopac Systems, Inc, Santa Barbara, Calif., USA), stored on a personal computer, and processed off-line using custom-written software (LabVIEW, Version 11.0; National Instruments, Austin, Tex., USA). The scaled force signal was low-pass filtered, with a 10-Hz cutoff (zero-phase lag, fourth-order Butterworth filter). All subsequent analyses were conducted on the scaled and filtered force signal. For the isometric force production tests, the rate of force development (RFD) over specific time intervals (i.e. 30, 50, 100 and 200 ms) was calculated by manually specifying the onset of force production within the custom LabVIEW program. For each repetition of the maximum isokinetic force production test, isokinetic peak forces (PF) were determined as the highest mean 25-ms epoch for both concentric and eccentric testing (i.e. PFCONC and PFECC).

**Q.** Which “Average effect size for tests of lower body force generation (1RMLP, PFCON, PFECC, RFD)” value (Cohen's d, vs 0.3-0.4 in TRF or CD) does the source give for `CC(C)(O)CC(=O)O` [TRFHMB, β-hydroxy-β-methylbutyrate] here?
**A.** 0.6-0.7

**Q.** What about the “PFCON ES (d)” value (ITT analysis) of the same molecule?
**A.** 0.83

**Q.** And the “PFECC ES (d)” value (ITT analysis)?
**A.** 0.60

**Q.** What about the “PFCON Δ (%)” value (ITT analysis) of the same molecule?
**A.** 29%

**Q.** What about the “PFECC Δ (%)” value (ITT analysis) of the same molecule?
**A.** 19%

**Q.** What about the “PFCON (N) Week 4” value (ITT analysis) of the same molecule?
**A.** 1195 ± 92 N

**Q.** What about the “PFCON (N) Week 8” value (ITT analysis) of the same molecule?
**A.** 1324 ± 112 N

**Q.** What about the “PFECC (N) Week 4” value (ITT analysis) of the same molecule?
**A.** 1301 ± 93 N

**Q.** What about the “PFECC (N) Week 8” value (ITT analysis) of the same molecule?
**A.** 1407 ± 95 N

**Q.** And the “PFCON (N) Δ” value (ITT analysis)?
**A.** 295 N

**Q.** What about the “PFECC (N) Δ” value (ITT analysis) of the same molecule?
**A.** 223 N

**Q.** And the “PFCON ES (d)” value (PP analysis)?
**A.** 0.95

**Q.** What about the “PFECC ES (d)” value (PP analysis) of the same molecule?
**A.** 0.48

**Q.** What about the “PFCON Δ (%)” value (PP analysis) of the same molecule?
**A.** 31%

**Q.** And the “PFECC Δ (%)” value (PP analysis)?
**A.** 14%

**Q.** What about the “PFCON (N) Week 4” value (PP analysis) of the same molecule?
**A.** 1247 ± 133 N

**Q.** And the “PFCON (N) Week 8” value (PP analysis)?
**A.** 1418 ± 154 N

**Q.** And the “PFECC (N) Week 4” value (PP analysis)?
**A.** 1311 ± 136 N

**Q.** What about the “PFECC (N) Week 8” value (PP analysis) of the same molecule?
**A.** 1475 ± 133 N

**Q.** What about the “PFCON (N) Δ” value (PP analysis) of the same molecule?
**A.** 336 N

**Q.** And the “PFECC (N) Δ” value (PP analysis)?
**A.** 184 N
